ChEMBL document CHEMBL1158393, “Synthesis, characterization and in vitro antiproliferative activities of new 13-cis-retinoyl ferrocene derivatives” (Eur J Med Chem, 2009)
pIC50: −log10 of the molar value.

Columns and labels:
Assay type in all cases: functional, cell-based
A549 = assay: Cytotoxicity against human A549 cells after 24 hrs by MTT assay; conditions: A549, 24 h
[1] = Cytotoxicity against human Bel7404 cells after 24 hrs by MTT assay; conditions: BEL-7404, 24 h
[2] = Cytotoxicity against human Tca cells after 24 hrs by MTT assay

## CC1=C(/C=C/C(C)=C/C=C/C(C)=C\C(=O)O)C(C)(C)CCC1 [ISOTRETINOIN]
A549
  pIC50: 4.45
[1]
  pIC50: 4.37
[2]
  pIC50: 4.40
